Reference: ChEMBL document CHEMBL1201862, “PubChem BioAssay data set” (2004)
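Assay format: 96-well plates, 48-hour exposure. GI50 is the concentration that inhibits growth by half.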 Activity calls are given as the source filed them. Cut-off read from the data, not from the text of the source: active = GI50 up to about 1.1 µM and inactive = higher.

Assays:
Assay in all cases: NCI-60 cell line screen, 48 h
786-0 = test system: 786-0
A498 = test system: A498
A549 = test system: A549
CAKI-1 = test system: CAKI-1
HCC 2998 = test system: HCC 2998
HOP-62 = test system: HOP-62
KM12 = test system: KM12
LOX IMVI = test system: LOX IMVI
M14 = test system: M14
NCI-H23 = test system: NCI-H23
OVCAR-3 = test system: OVCAR-3
OVCAR-4 = test system: OVCAR-4
SF-539 = test system: SF-539
SN12C = test system: SN12C
UO-31 = test system: UO-31
BT-549 = test system: BT-549
MCF7 = test system: MCF7
MDA-MB-231 = test system: MDA-MB-231
Hs-578T = test system: Hs-578T
MDA-N = test system: MDA-N

Measured: GI50

O=C1CCC(=O)c2cc(Br)ccc2N1
inactive: 786-0 > 100 µM | A498 > 100 µM | A549 98.6 µM | CAKI-1 > 100 µM | HCC 2998 > 100 µM | HOP-62 > 100 µM | KM12 > 100 µM | LOX IMVI > 96.6 µM | M14 > 100 µM | NCI-H23 > 100 µM | OVCAR-3 > 100 µM | OVCAR-4 > 100 µM | SF-539 > 100 µM | SN12C > 100 µM | UO-31 > 100 µM

Nc1c(C(=O)c2ccccc2)nnc2ccccc12
inactive: 786-0 30.5 µM | A549 37.3 µM | BT-549 18.7 µM | CAKI-1 29.5 µM | HCC 2998 23.4 µM | HOP-62 24.5 µM | KM12 20.4 µM | LOX IMVI 32.4 µM | M14 39.3 µM | MCF7 20.4 µM | MDA-MB-231 18.2 µM | NCI-H23 24.8 µM | OVCAR-4 29.8 µM | SF-539 27.4 µM | UO-31 24.7 µM

COc1ccc(C2C(Cl)C(=O)N2NC(=O)c2ccc(N)cc2)cc1 (stereo not drawn)
inactive: 786-0 > 100 µM | A498 > 100 µM | A549 > 100 µM | CAKI-1 > 100 µM | HCC 2998 > 100 µM | HOP-62 > 100 µM | KM12 > 100 µM | LOX IMVI > 100 µM | M14 > 100 µM | NCI-H23 > 100 µM | OVCAR-3 > 100 µM | OVCAR-4 > 100 µM | SF-539 > 100 µM | SN12C > 100 µM | UO-31 > 100 µM

O=C(CN1CCN(c2cccc(Cl)c2)CC1)N1CCc2c([nH]c3ccccc23)C1c1cccnc1 (stereo not drawn)
inactive: 786-0 11.8 µM | A498 20.5 µM | A549 7.13 µM | CAKI-1 12.8 µM | HCC 2998 5.24 µM | HOP-62 14.7 µM | KM12 4.85 µM | M14 4.47 µM | NCI-H23 16.4 µM | OVCAR-3 15.5 µM | OVCAR-4 13.5 µM | SF-539 15.5 µM | SN12C 9.57 µM | UO-31 4.1 µM

CC1(c2ccc(Cl)cc2)C2C(=O)NC(=O)C1C(=O)NC2=O (stereo not drawn)
inactive: 786-0 > 100 µM | A498 > 100 µM | A549 > 100 µM | CAKI-1 > 100 µM | HCC 2998 > 100 µM | HOP-62 > 100 µM | KM12 > 100 µM | LOX IMVI > 100 µM | M14 > 100 µM | NCI-H23 > 100 µM | OVCAR-3 > 100 µM | OVCAR-4 > 100 µM | SF-539 > 100 µM | SN12C > 100 µM | UO-31 > 100 µM

CSc1ccc(-c2cc(-c3nc4ccccc4[nH]3)nc3[nH]c(-c4nc5ccccc5[nH]4)cc(=O)c23)cc1
inactive: 786-0 > 100 µM | A549 > 100 µM | BT-549 85.3 µM | CAKI-1 > 100 µM | HCC 2998 5.33 µM | HOP-62 84.5 µM | Hs-578T > 100 µM | KM12 60.3 µM | LOX IMVI 42.5 µM | M14 82.4 µM | MCF7 34 µM | NCI-H23 > 100 µM | OVCAR-3 > 100 µM | OVCAR-4 82.4 µM | SF-539 > 100 µM | SN12C 71.1 µM | UO-31 > 100 µM

CCOC(OC1=C(C#N)CCCC1)C(CC)[Se]c1ccccc1[N+](=O)[O-] (stereo not drawn)
inactive: 786-0 17.8 µM | A498 > 100 µM | A549 57.5 µM | CAKI-1 > 100 µM | HCC 2998 17.7 µM | HOP-62 32.1 µM | KM12 21.1 µM | LOX IMVI 16 µM | M14 17.9 µM | NCI-H23 16.7 µM | OVCAR-3 26.5 µM | OVCAR-4 17.9 µM | SF-539 20 µM | SN12C 19.6 µM | UO-31 26.8 µM

Cc1cc(N(CCC#N)CCC#N)ccc1/N=N/c1cccc(C(=O)O)c1
inactive: 786-0 > 100 µM | A498 > 100 µM | A549 > 100 µM | CAKI-1 > 100 µM | HCC 2998 > 100 µM | HOP-62 > 100 µM | KM12 > 100 µM | LOX IMVI > 100 µM | M14 > 100 µM | NCI-H23 > 100 µM | OVCAR-3 56 µM | OVCAR-4 > 100 µM | SF-539 > 100 µM | SN12C > 100 µM | UO-31 > 100 µM

CN1OC(=O)N(C)C1c1ccccc1 (stereo not drawn)
inactive: A498 > 100 µM | A549 > 100 µM | HCC 2998 > 100 µM | HOP-62 > 100 µM | KM12 > 100 µM | LOX IMVI > 100 µM | MCF7 > 100 µM | NCI-H23 > 100 µM | OVCAR-3 > 100 µM | OVCAR-4 > 100 µM | SF-539 > 100 µM | SN12C > 100 µM | UO-31 > 100 µM

OC(c1nc2ccccc2s1)(C(F)(F)F)C(F)(F)F
inactive: 786-0 > 100 µM | A498 > 100 µM | A549 > 100 µM | CAKI-1 > 100 µM | HCC 2998 > 100 µM | HOP-62 > 100 µM | Hs-578T > 100 µM | KM12 > 100 µM | LOX IMVI > 100 µM | M14 > 100 µM | MCF7 > 100 µM | MDA-MB-231 > 100 µM | MDA-N > 100 µM | NCI-H23 > 100 µM | OVCAR-3 > 100 µM | OVCAR-4 > 100 µM | SF-539 > 100 µM | SN12C > 100 µM | UO-31 87.1 µM

C=C1C(O)CC[C@]2(C)C1C1OC(C)(C)O[C@]13CC(=O)C(C)=C([C@H]1OC(C)(C)OC12)C3(C)C (stereo partly drawn)
inactive: 786-0 > 100 µM | A498 23.1 µM | A549 > 100 µM | BT-549 > 100 µM | CAKI-1 > 100 µM | HCC 2998 > 100 µM | HOP-62 > 100 µM | KM12 > 100 µM | LOX IMVI > 100 µM | MCF7 65.8 µM | MDA-MB-231 > 100 µM | NCI-H23 > 100 µM | OVCAR-3 > 100 µM | OVCAR-4 96.4 µM | SF-539 > 100 µM | SN12C > 100 µM | UO-31 > 100 µM

COc1ccc(C2Oc3cc(OC)c(O)cc3[C@@H]2C)cc1 (stereo partly drawn)
inactive: 786-0 17.1 µM | A498 > 100 µM | A549 59 µM | CAKI-1 29.3 µM | HCC 2998 57.5 µM | HOP-62 > 100 µM | KM12 45 µM | LOX IMVI 14.3 µM | M14 19.1 µM | NCI-H23 23.6 µM | OVCAR-3 26.5 µM | OVCAR-4 32.5 µM | SF-539 > 100 µM | UO-31 13.8 µM

Cc1ccc(S(=O)(=O)n2cc(-c3cc(C(F)(F)F)ccn3)c3cc(Br)ccc32)cc1
inactive: 786-0 13.9 µM | A498 18.2 µM | A549 21.1 µM | CAKI-1 16.3 µM | HCC 2998 16.4 µM | HOP-62 11.8 µM | Hs-578T 15 µM | KM12 38.9 µM | LOX IMVI 28.1 µM | M14 27.7 µM | MCF7 5.26 µM | MDA-MB-231 17.3 µM | MDA-N 45.2 µM | NCI-H23 14.5 µM | OVCAR-3 12.2 µM | OVCAR-4 12.3 µM | SF-539 17.1 µM | SN12C 28.3 µM | UO-31 11.2 µM
